Source: PubChem BioAssay (NCI)
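Method: 48-hour compound exposure of cells in 96-well plates, five concentrations, linear interpolation of endpoints. TGI denotes the concentration required for complete inhibition of growth.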

Tests used:
Assay in all cases: NCI tumour cell line growth inhibition, 48 h
SNB-19 CNS = system: SNB-19 CNS
IGROV1 ovarian = system: IGROV1 ovarian
RPMI-8226 leukemia = system: RPMI-8226 leukemia
UACC-62 melanoma = system: UACC-62 melanoma
NCI/ADR-RES ovarian = system: NCI/ADR-RES ovarian
SW-620 colon = system: SW-620 colon
MCF7 breast = system: MCF7 breast
CAKI-1 renal = system: CAKI-1 renal
LOX IMVI melanoma = system: LOX IMVI melanoma
OVCAR-5 ovarian = system: OVCAR-5 ovarian
NCI-H522 lung = system: NCI-H522 lung
A498 renal = system: A498 renal
COLO 205 colon = system: COLO 205 colon
786-0 renal = system: 786-0 renal
ACHN renal = system: ACHN renal
KM12 colon = system: KM12 colon
DU-145 prostate = system: DU-145 prostate
PC-3 prostate = system: PC-3 prostate
HOP-92 NSCLC = system: HOP-92 NSCLC
NCI-H23 lung = system: NCI-H23 lung
A549 NSCLC = system: A549 NSCLC
MOLT-4 leukemia = system: MOLT-4 leukemia
SN12C renal = system: SN12C renal
T-47D breast = system: T-47D breast
SR leukemia = system: SR leukemia
OVCAR-8 ovarian = system: OVCAR-8 ovarian
NCI-H460 lung = system: NCI-H460 lung
MDA-MB-435 = system: MDA-MB-435
K-562 leukemia = system: K-562 leukemia
MDA-MB-231 breast = system: MDA-MB-231 breast
SF-268 CNS = system: SF-268 CNS
HOP-62 NSCLC = system: HOP-62 NSCLC
RXF 393 renal = system: RXF 393 renal
EKVX NSCLC = system: EKVX NSCLC
SF-539 CNS = system: SF-539 CNS
SK-MEL-28 melanoma = system: SK-MEL-28 melanoma
HT29 colon = system: HT29 colon
HCT-116 colon = system: HCT-116 colon
HCC-2998 colon = system: HCC-2998 colon
SNB-75 CNS = system: SNB-75 CNS
M14 melanoma = system: M14 melanoma
MALME-3M melanoma = system: MALME-3M melanoma
SK-MEL-2 melanoma = system: SK-MEL-2 melanoma
HCT-15 colon = system: HCT-15 colon
CCRF-CEM leukemia = system: CCRF-CEM leukemia
OVCAR-4 ovarian = system: OVCAR-4 ovarian
MDA-N = system: MDA-N
U251 CNS = system: U251 CNS
TK-10 renal = system: TK-10 renal
HL-60(TB) leukemia = system: HL-60(TB) leukemia
UO-31 renal = system: UO-31 renal
UACC-257 melanoma = system: UACC-257 melanoma
BT-549 breast = system: BT-549 breast
NCI-H226 lung = system: NCI-H226 lung
SK-OV-3 ovarian = system: SK-OV-3 ovarian
SF-295 CNS = system: SF-295 CNS
HS 578T breast = system: HS 578T breast
SK-MEL-5 melanoma = system: SK-MEL-5 melanoma
OVCAR-3 ovarian = system: OVCAR-3 ovarian

Measured: TGI

CC(CCC(=O)O)[C@H]1CCC2[C@H]3C(CC[C@@]21C)[C@@]1(C)CCC(O)C[C@H]1C[C@@H]3O (stereo partly drawn)
not listed: SK-OV-3 ovarian | SF-295 CNS | HS 578T breast | SK-MEL-5 melanoma | OVCAR-3 ovarian
> 100 µM: all other assays above

CNC(=O)CCC(NC(C)=O)C(=O)NC(Cc1ccc(NC(=O)CCCCC(C)=O)cc1)C(=O)NC(CCC(=O)NC)C(=O)NC (stereo not drawn)
not listed: SR leukemia | SNB-75 CNS | SK-MEL-2 melanoma | CCRF-CEM leukemia | UACC-257 melanoma
> 100 µM: all other assays above
